From ChEMBL document CHEMBL1135043, “A neural network based virtual screening of cytochrome P450 3A4 inhibitors” (Bioorg Med Chem Lett, 2002) come the findings set out here.

The structures appear in SMILES notation.

The target of this data set is Cytochrome P450 3A4 (Homo sapiens, UniProt P08684). As to the kind of experiment: Inhibition of cytochrome P450 3A4.
Sequence of Cytochrome P450 3A4 (P08684 whole entry): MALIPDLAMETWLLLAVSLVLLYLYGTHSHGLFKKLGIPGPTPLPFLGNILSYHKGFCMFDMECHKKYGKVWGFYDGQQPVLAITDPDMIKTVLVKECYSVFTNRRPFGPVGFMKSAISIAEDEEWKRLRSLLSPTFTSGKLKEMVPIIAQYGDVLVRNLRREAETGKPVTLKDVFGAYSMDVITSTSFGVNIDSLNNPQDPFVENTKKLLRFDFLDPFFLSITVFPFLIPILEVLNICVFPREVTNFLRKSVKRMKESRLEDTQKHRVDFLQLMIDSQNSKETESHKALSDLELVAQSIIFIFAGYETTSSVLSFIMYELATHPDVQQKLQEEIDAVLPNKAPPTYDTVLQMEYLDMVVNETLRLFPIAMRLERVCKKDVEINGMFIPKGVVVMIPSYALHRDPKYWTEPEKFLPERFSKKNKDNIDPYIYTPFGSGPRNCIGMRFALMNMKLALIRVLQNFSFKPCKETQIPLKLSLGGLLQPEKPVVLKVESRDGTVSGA
In the case of `OC(COc1cccc2ncccc12)CN1CCN(C2c3ccccc3C3CC3c3ccccc32)CC1` (configuration not stated), the Inhibitory index was determined as 0.88.
`COc1ccccc1CN(CC(Cc1c[nH]c2ccccc12)NC(=O)CN1CCC(N2CCCCC2)CC1)C(C)=O` (configuration not stated): the Inhibitory index came out at 0.86.
As for `O[C@@H](COc1cccc2ncccc12)CN1CCN([C@@H]2c3ccccc3[C@@H]3[C@H](c4ccccc42)C3(F)F)CC1`, the Inhibitory index came out at 0.88.
Consider `CN1CCC(c2c[nH]c3ccc(NC(=O)c4ccc(F)cc4)cc23)CC1`, for which the Inhibitory index is 0.8.
`COCCCOc1ccnc(C[S+]([O-])c2nc3ccccc3[nH]2)c1C` (configuration not stated) [RABEPRAZOLE] had an Inhibitory index of 0.82.
Under `CC(C)(C)c1cc(CC2SCNC2=O)cc(C(C)(C)C)c1O` (configuration not stated) [TAZOFELONE] stands 0.39.
Under `CN1[C@@H]2CC[C@H]1C[C@@H](NC(=O)c1cc(Cl)cc3c1OC(C)(C)C3)C2` [ZATOSETRON] stands 0.8.
